# In PMC9413201, “Covalent Proteomimetic Inhibitor of the Bacterial FtsQB Divisome Complex” (Journal of the American Chemical Society, 2022):
# Numbered stars: 1 amine (or outer) side, 2 acyl side, 3 side chain; on linkers, the order of the positions; unused ones are H or OH. Bridge positions count the residues as written; N and C are the ends. Square brackets hold non-standard residues; d marks the D form. Peptide text beside a SMILES is read from it. * marks the point of attachment. X1 = O=C([C@H](CCCCCC=[*:3])N[*:1])[*:2]; Nle = CCCC[C@H](N)C(=O)O; BrAc = O=C(CBr)*
# Legend:
# E. coli lptD4213 (imp) = assay: Growth assay (OD600) with outer membrane-permeable E. coli lptD4213 (imp); type: cell-based
# Experimental: Growth assays were performed to assess the in vitro cytotoxicity of peptides. The experiments were executed under sterile conditions. For each assay, 20 mL of fresh MOPS medium was prepared (Teknova Inc MOPS EZ Rich Defined Medium Kit | M2105: 40 mM MOPS, 4 mM Tricine, 0.01 mM FeSO4, 9.5 mM NH4Cl, 0.276 mM […]
# MOPS medium with Streptomycin (30 μg/mL) and incubated overnight at 200 rpm and 37°C. The next day, the […]
# peptide stocks in DMSO were diluted to four times the desired highest concentration to be measured in MOPS medium. The peptide dilutions were vortexed and briefly centrifuged. 50 μL of MOPS medium was added to each well of a Corning® 96-well Clear Flat Bottom Polystyrene TC-treated Microplate. A twofold dilution series was performed by adding 50 μL of the diluted peptide to the top row, mixing it and taking 50 μL to the next row. At each step the solution was resuspended five times. This was repeated until the last row which was skipped in order to obtain a reference measurement. After 2-3 h, the E.coli lptD4213 (imp) pre-culture was diluted to an OD600 of 0.00005. Then, 50 μL of diluted culture were added to each well and the plate sealed using a lid and parafilm. The OD600 was measured every 15 min over a period of more than 20 h (continuously shaking, 37°C) using a BioTek Synergy H1 plate reader. The obtained data were analyzed and relative growth curves plotted with GraphPad Prism 8. The assays were performed as technical triplicates. A single overnight pre-culture was used to prepare the diluted MOPS culture used in the growth assay. […]
# FtsQ(50–276) = FtsQ(50–276) (Escherichia coli, UniProt P06136); type: biochemical, E. coli; parameters: pET16b FtsQ(50˗276), a His6 fusion; made in house; host or cells: Escherichia coli BL21 DE3; details: peptide 125 μM, FtsQ(50–276) 50 μM, 37 °C, 1 or 3 h
# FtsQ(50–276), sequence (P06136 50-276): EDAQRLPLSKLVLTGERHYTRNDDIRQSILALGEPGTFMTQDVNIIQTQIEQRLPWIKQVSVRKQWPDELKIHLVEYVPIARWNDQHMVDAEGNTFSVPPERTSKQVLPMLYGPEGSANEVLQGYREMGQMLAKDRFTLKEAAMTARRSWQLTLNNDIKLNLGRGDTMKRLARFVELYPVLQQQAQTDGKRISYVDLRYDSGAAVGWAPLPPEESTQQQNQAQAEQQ
# Experimental: 1.5 Protein modification assay
# To determine the reactivity of the different modifiers FtsQ(50˗276) was diluted to a concentration of 100 µM in 20 mM NH4HCO3 buffer (pH 7.6, 150 mM NaCl). The individual peptides were diluted to a concentration of 250 μM in the same buffer. Equal volumes of both solutions were mixed and incubated at 37 °C for the given time period (1 h or 3 h). The reaction was quenched using 5x SDS sample buffer (pH 6.8, 1.875 g TRIS-Cl, 25 mL glycerol, 5 g SDS, 12.5 mL β-mercaptoethanol, 0.5 % bromphenol blue and add 50 mL ddH2O). Samples were heated to 96 °C for 2 min and subsequently analysed by 17 % tris/tricine PAGE (15 min at 90 V and then 3:45 h at 150 V). PageRuler™ Prestained Protein Ladder, 10 to 180 kDa (Thermo Scientific™) was used as a ladder.
# Staining was performed using standard Coomassie Staining Solution (40 mL EtOH, 0.3 g Coomassie Blue R250, 0.3 g Coomassie Blue G250, ad 100 mL ddH2O.) and then destained using water.
# 17 % Tris/Tricine gel (2x):
# Running gel: 1.6 mL H2O, 5.5 mL AB-mix, 2.5 mL Buffer A, 100 μL 10% APS, 10 μL 1% TEMED Stacking gel: 2.1 mL H2O, 0.5 mL AB-mix, 0.38 mL Buffer A, 50 μL 10% APS, 5 μL 1% TEMED […]
# Buffer A (4x) pH 8.45 3M Tris, 0.3 % SDS; Anode Buffer (10x) pH 8.8, 3M Tris; Cathode buffer (10x) 1M Tris, […]
# [1] = Toxicity test in uninfected zebrafish larvae; details: 15 zebrafish per condition, L8S1 3.125 µM, 17fα 70 µM, n = 1 replicate
# [2] = test system: FtsB-mNG localization in E. coli lptD4213 (imp); assay: Localization of FtsB-mNG (fluorescence microscopy); type: cell-based; details: peptide c = 100 μM, 60 min after addition, MOPS rich medium, 37 °C
# Experimental: were incubated for 1 h at 50 °C. The condensates were collected by centrifuging for 10 s. The digests were mixed for a few seconds and transferred to another tube. 0.5 % TFA was added to inactivate trypsin. The samples were […]
# E.coli mutant lptD4213 (imp)
# MOPS: MOPS EZ Rich Defined Medium Kit M2105 (Teknova).
# At the end of the day, the cells
# The next day, the cells were grown and diluted […]
# objective. […] In all experiments, the cells […]
# ex470/40, dic495LP, em525/50).
smiles,measurement,setting,value
CCCC[C@@H]1NC(=O)[C@H](CO)NC(=O)[C@H](CC(C)C)NC(=O)[C@H](CCC(=O)O)NC(=O)[C@H](CC(N)=O)NC(=O)[C@@H](NC(=O)[C@H](C)NC(C)=O)CCCCCC=CCCCCC[C@@H](C(=O)N[C@@H](CCCCNC(=O)CBr)C(=O)N[C@@H](Cc2ccccc2)C(=O)N[C@@H](Cc2ccc(O)cc2)C(=O)N[C@@H](CCCNC(=N)N)C(=O)N[C@@H](CC(C)C)C(N)=O)NC(=O)CNC(=O)[C@@H]2CCCN2C(=O)[C@H](CCCNC(=N)N)NC(=O)[C@H]([C@@H](C)O)NC1=O [17fα] (Ac-A[X1]NELS[Nle]TRPG[X1]K(BrAc)FYRL-NH2; staple 2-12),lowest concentration with inhibitory effect on growth,"E. coli lptD4213 (imp); concentration-dependent effect on growth after 15 h, highest tested concentration 100 μM, n = 3 replicates",12.5 µM
same,effect on bacterial growth (OD600),"E. coli lptD4213 (imp); inhibitor c = 50 μM, OD600 every 15 min over 22 h, n = 3 technical replicates",prevents bacterial growth
same,specificity of FtsQ(50–276) modification (number of up-shifted bands),FtsQ(50–276),robust and selective covalent modification
same,"Surviving zebrafish, Day 1",[1],15
same,"Surviving zebrafish, Day 2",[1],15
same,FtsB-mNG midcell localization,[2],loss of midcell localization
